Read-outs that look alike come from different tables or passages of the source.
How the values were obtained:
[1] = molecular target: one or more of HDAC-1, HDAC-2, HDAC-3, HDAC-4, HDAC-5, HDAC-6, HDAC-7, HDAC-8, HDAC-9, HDAC-10 and HDAC-11; experiment: Inhibition of Histone Deacetylase Enzymatic Activity (Boc-Lys(Ac)-AMC substrate, Fluor-de-Lys developer); format: biochemical; conditions: read-out: HDAC Inhibition (IC50 μM) HDAC Enzyme
Description: The following protocol is used to assay the compounds of the disclosure.
The mixture is pre-incubated for 5 minutes at room temperature. The reaction is started by bringing the temperature to 37° C. and adding 16 μl substrate. Total reaction volume is 50 μl.
In the Tables 8, 9 and 10, A≦0.05 μM; 0.05 μM<B≦0.1 μM; 0.1 μM<C≦1 μM; and 1 μM<D≦10 μM.

[2] = test system: HDAC activity in primary mouse cortical cultures; experiment: Whole-Cell Histone Deacetylase (HDAC) Inhibition Assay in Primary Mouse Cortical Cultures; format: cell-based
Outline: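 Primary neocortical neurons from E17 Balb/C mouse embryos were plated at 50000 cells/well and treated at DIV9 with ten-point DMSO dilutions for 16-18 h at 37° C, in triplicate. BOC-Lys(Ac)-AMC substrate was then added for 1 h. Fluor de Lys developer containing 1 uM TSA produced a fluorophore, which was read.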

[3] = whole-cell (WC), mouse cortical neurons, Table 8, read-out: HDAC Inhibition (IC50 μM) WC mouse cortical neurons
[4] = read-out: HDAC Inhibition (IC50 μM) WC mouse cortical neurons, Table 10

O=C(NO)c1ccc(C2=Nc3ccc(C(F)(F)F)nc3Oc3ccccc32)cc1 [(Z)-N-hydroxy-4-(2-(trifluoromethyl)benzo[f]pyrido[2,3-b][1,4]oxazepin-6-yl)benzamide] showed an IC50 ([1]; Table 8) of 0.05 to 0.1 µM and an IC50 [2, 3] of 5 to 15 µM.

For COc1cccc2c1Oc1ccc(C(F)(F)F)cc1N=C2c1ccc(C(=O)NO)cc1 [(Z)-N-hydroxy-4-(4-methoxy-8-(trifluoromethyl)dibenzo[b,f][1,4]oxazepin-11-yl)benzamide], the IC50 ([1]; Table 8) was 0.1 to 1 µM and the IC50 [2, 3] was 5 to 15 µM.

Work on O=C(NO)c1ccc(C2=Nc3ccccc3N(CCN3CCOCC3)c3ncccc32)cc1 [(Z)-N-hydroxy-4-(11-(2-morpholinoethyl)-11H-benzo[b]pyrido[2,3-e][1,4]diazepin-5-yl)benzamide] yielded an IC50 ([1]; Table 8) of 0.05 to 0.1 µM and an IC50 [2, 3] of 1 to 5 µM.

For O=C(NO)c1ccc(C2=Nc3ccccc3N(CCCN3CCOCC3)c3ncccc32)cc1 [(Z)-N-hydroxy-4-(11-(3-morpholinopropyl)-11H-benzo[b]pyrido[2,3-e][1,4]diazepin-5-yl)benzamide], the IC50 ([1]; Table 8) was 0.1 to 1 µM and the IC50 [2, 3] was 1 to 5 µM.

CC(C)N1c2ccccc2N=C(c2ccc(C(=O)NO)cc2)c2cccnc21 [(Z)-N-hydroxy-4-(11-isopropyl-11H-benzo[b]pyrido[2,3-e][1,4]diazepin-5-yl)benzamide] showed an IC50 ([1]; Table 8) of under 0.05 µM and an IC50 [2, 3] of under 1 µM.

O=C(CCCCCN1C(=O)CN=C(c2ccccc2)c2ccccc21)NO [(Z)-N-hydroxy-6-(2-oxo-5-phenyl-2,3-dihydro-1H-benzo[e][1,4]diazepin-1-yl)hexanamide] gave an IC50 ([1]; Table 10) of 0.1 to 1 µM and an IC50 [2, 4] of 1 to 5 µM.

O=C(CCCCCCCN1C(=O)CN=C(c2ccccc2)c2ccccc21)NO [(Z)-N-hydroxy-8-(2-oxo-5-phenyl-2,3-dihydro-1H-benzo[e][1,4]diazepin-1-yl)octanamide] gave an IC50 ([1]; Table 10) of 0.1 to 1 µM and an IC50 [2, 4] of 1 to 5 µM.

Molecule COc1cccc2c1C(c1ccc(C(=O)NO)cc1)=Nc1ccccc1O2 [(Z)—N-hydroxy-4-(1-methoxydibenzo[b,f][1,4]oxazepin-11-yl)benzamide] has an IC50 ([1]; Table 8) of 0.1 to 1 µM and an IC50 [2, 3] of over 15 µM.

Molecule COc1ccc2c(c1)C(c1ccc(C(=O)NO)cc1)=Nc1ccccc1O2 [(Z)—N-hydroxy-4-(2-methoxydibenzo[b,f][1,4]oxazepin-11-yl)benzamide] has an IC50 ([1]; Table 8) of 0.1 to 1 µM and an IC50 [2, 3] of 5 to 15 µM.

For O=C(NO)c1ccc(C2=Nc3ccccc3Oc3cc(C(F)(F)F)ccc32)cc1 [(Z)—N-hydroxy-4-(3-(trifluoromethyl)dibenzo[b,f][1,4]oxazepin-11-yl)benzamide], the IC50 ([1]; Table 8) was 0.05 to 0.1 µM and the IC50 [2, 3] was over 15 µM.

COc1ccc2c(c1)Oc1ccccc1N=C2c1ccc(C(=O)NO)cc1 [(Z)—N-hydroxy-4-(3-methoxydibenzo[b,f][1,4]oxazepin-11-yl)benzamide] showed an IC50 ([1]; Table 8) of 0.1 to 1 µM and an IC50 [2, 3] of 1 to 5 µM.

Work on Cc1ccc2c(c1)Oc1ccccc1N=C2c1ccc(C(=O)NO)cc1 [(Z)—N-hydroxy-4-(3-methyldibenzo[b,f][1,4]oxazepin-11-yl)benzamide] yielded an IC50 ([1]; Table 8) of under 0.05 µM and an IC50 [2, 3] of 1 to 5 µM.

Molecule O=C(NO)c1ccc(C2=Nc3ccccc3Oc3cc(N4CCOCC4)ccc32)cc1 [(Z)—N-hydroxy-4-(3-morpholinodibenzo[b,f][1,4]oxazepin-11-yl)benzamide] has an IC50 ([1]; Table 8) of 0.1 to 1 µM and an IC50 [2, 3] of 5 to 15 µM.

COCCOc1cccc2c1Oc1ccccc1N=C2c1ccc(C(=O)NO)cc1 [(Z)—N-hydroxy-4-(4-(2-methoxyethoxy)dibenzo[b,f][1,4]oxazepin-11-yl)benzamide] gave an IC50 ([1]; Table 8) of under 0.05 µM and an IC50 [2, 3] of 1 to 5 µM.

With O=C(NO)c1ccc(C2=Nc3ccccc3Oc3c(OCCN4CCOCC4)cccc32)cc1 [(Z)—N-hydroxy-4-(4-(2-morpholinoethoxy)dibenzo[b,f][1,4]oxazepin-11-yl)benzamide] the IC50 ([1]; Table 8) was under 0.05 µM and the IC50 [2, 3] was under 1 µM.

C[S+]([O-])c1cccc2c1Oc1ccccc1N=C2c1ccc(C(=O)NO)cc1 (stereo not drawn) [(Z)—N-hydroxy-4-(4-(methylsulfinyl)dibenzo[b,f][1,4]oxazepin-11-yl)benzamide] showed an IC50 ([1]; Table 8) of 0.05 to 0.1 µM and an IC50 [2, 3] of 1 to 5 µM.

CS(=O)(=O)c1cccc2c1Oc1ccccc1N=C2c1ccc(C(=O)NO)cc1 [(Z)—N-hydroxy-4-(4-(methylsulfonyl)dibenzo[b,f][1,4]oxazepin-11-yl)benzamide] gave an IC50 ([1]; Table 8) of under 0.05 µM and an IC50 [2, 3] of 1 to 5 µM.

CSc1cccc2c1Oc1ccccc1N=C2c1ccc(C(=O)NO)cc1 [(Z)—N-hydroxy-4-(4-(methylthio)dibenzo[b,f][1,4]oxazepin-11-yl)benzamide] was tested, and the IC50 ([1]; Table 8) was under 0.05 µM and the IC50 [2, 3] was 1 to 5 µM.

For O=C(NO)c1ccc(C2=Nc3ccccc3Oc3c(OC(F)(F)F)cccc32)cc1 [(Z)—N-hydroxy-4-(4-(trifluoromethoxy)dibenzo[b,f][1,4]oxazepin-11-yl)benzamide], the IC50 ([1]; Table 8) was 0.1 to 1 µM and the IC50 [2, 3] was over 15 µM.

Work on O=C(NO)c1ccc(C2=Nc3ccccc3Oc3c2cccc3C(F)(F)F)cc1 [(Z)—N-hydroxy-4-(4-(trifluoromethyl)dibenzo[b,f][1,4]oxazepin-11-yl)benzamide] yielded an IC50 ([1]; Table 8) of under 0.05 µM and an IC50 [2, 3] of over 15 µM.

O=C(NO)c1ccc(C2=Nc3ccccc3Oc3c(O)cccc32)cc1 [(Z)—N-hydroxy-4-(4-hydroxydibenzo[b,f][1,4]oxazepin-11-yl)benzamide] was tested, and the IC50 ([1]; Table 8) was 0.05 to 0.1 µM and the IC50 [2, 3] was under 1 µM.

Work on COc1cccc2c1Oc1ccccc1N=C2c1ccc(C(=O)NO)cc1 [(Z)—N-hydroxy-4-(4-methoxydibenzo[b,f][1,4]oxazepin-11-yl)benzamide] yielded an IC50 ([1]; Table 8) of 0.05 to 0.1 µM and an IC50 [2, 3] of 1 to 5 µM.

In the case of Cc1cccc2c1Oc1ccccc1N=C2c1ccc(C(=O)NO)cc1 [(Z)—N-hydroxy-4-(4-methyldibenzo[b,f][1,4]oxazepin-11-yl)benzamide], the IC50 ([1]; Table 8) is reported as 0.05 to 0.1 µM and the IC50 [2, 3] is reported as 1 to 5 µM.

CCCc1cccc2c1Oc1ccccc1N=C2c1ccc(C(=O)NO)cc1 [(Z)—N-hydroxy-4-(4-propyldibenzo[b,f][1,4]oxazepin-11-yl)benzamide] was tested, and the IC50 ([1]; Table 8) was 0.1 to 1 µM and the IC50 [2, 3] was over 15 µM.

COCCN1c2ccccc2N=C(c2ccc(C(=O)NO)cc2)c2ccccc21 [(Z)—N-hydroxy-4-(5-(2-methoxyethyl)-5H-dibenzo[b,e][1,4]diazepin-11-yl)benzamide] showed an IC50 ([1]; Table 8) of 0.1 to 1 µM and an IC50 [2, 3] of 1 to 5 µM.

In the case of CC(C)N1c2ccccc2N=C(c2ccc(C(=O)NO)cc2)c2ccccc21 [(Z)—N-hydroxy-4-(5-isopropyl-5H-dibenzo[b,e][1,4]diazepin-11-yl)benzamide], the IC50 ([1]; Table 8) is reported as under 0.05 µM and the IC50 [2, 3] is reported as under 1 µM.

Cc1cccc2c1Oc1ccccc1C(c1ccc(C(=O)NO)cc1)=N2 [(Z)—N-hydroxy-4-(6-methyldibenzo[b,f][1,4]oxazepin-11-yl)benzamide] showed an IC50 ([1]; Table 8) of 0.1 to 1 µM and an IC50 [2, 3] of 5 to 15 µM.

Molecule O=C(NO)c1ccc(C2=Nc3ccc(C(F)(F)F)cc3Oc3ccccc32)cc1 [(Z)—N-hydroxy-4-(7-(trifluoromethyl)dibenzo[b,f][1,4]oxazepin-11-yl)benzamide] has an IC50 ([1]; Table 8) of 0.1 to 1 µM and an IC50 [2, 3] of over 15 µM.

Molecule O=C(NO)c1ccc(C2=Nc3cc(C(F)(F)F)ccc3Oc3ccccc32)cc1 [(Z)—N-hydroxy-4-(8-(trifluoromethyl)dibenzo[b,f][1,4]oxazepin-11-yl)benzamide] has an IC50 ([1]; Table 8) of 0.1 to 1 µM and an IC50 [2, 3] of 5 to 15 µM.

Cc1ccc2c(c1)N=C(c1ccc(C(=O)NO)cc1)c1ccccc1O2 [(Z)—N-hydroxy-4-(8-methyldibenzo[b,f][1,4]oxazepin-11-yl)benzamide] was tested, and the IC50 ([1]; Table 8) was 0.05 to 0.1 µM and the IC50 [2, 3] was 1 to 5 µM.
